Activity calls are given as the source filed them. The calls are words filed in the database; no cut-off is given here.
How the values were obtained:
[1] = system: HUVEC; experiment: Inhibition of tube formation in HUVEC at 6.25 uM measured after 24 hrs by Mayers hematoxylin staining based light microscopic analysis relative to control; format: functional; settings: Homo sapiens
[2] = system: HUVEC; experiment: Cytotoxicity against HUVEC assessed as inhibition of cell proliferation after 24 hrs by MTT assay; format: cell-based; settings: human
[3] = system: HUVEC; experiment: Antimigratory activity against HUVEC at 6.25 uM measured after 24 hrs by Mayers hematoxylin and eosin-Y staining based microscopic analysis relative to control; format: functional, Homo sapiens
[4] = system: MDA-MB-231; experiment: Cytotoxicity against human MDA-MB-231 cells assessed as decrease in cell viability at 6.25 to 25 uM after 24 hrs by MTT assay; format: functional, cell-based
[5] = system: MDA-MB-231; experiment: Cytotoxicity against human MDA-MB-231 cells assessed as decrease in cell viability at 200 uM after 24 hrs by MTT assay; format: functional, cell-based
[6] = system: MDA-MB-231; experiment: Decrease in VEGF expression in human MDA-MB-231 cells after 24 hrs by western blotting method; format: functional, cell-based
[7] = target: RAC-alpha serine/threonine-protein kinase (Homo sapiens) (UniProt P31749); experiment: Decrease in phosphorylated Akt level in human MDA-MB-231 cells after 24 hrs by western blotting method; format: cell-based
Chain of RAC-alpha serine/threonine-protein kinase (Homo sapiens) (P31749 whole entry): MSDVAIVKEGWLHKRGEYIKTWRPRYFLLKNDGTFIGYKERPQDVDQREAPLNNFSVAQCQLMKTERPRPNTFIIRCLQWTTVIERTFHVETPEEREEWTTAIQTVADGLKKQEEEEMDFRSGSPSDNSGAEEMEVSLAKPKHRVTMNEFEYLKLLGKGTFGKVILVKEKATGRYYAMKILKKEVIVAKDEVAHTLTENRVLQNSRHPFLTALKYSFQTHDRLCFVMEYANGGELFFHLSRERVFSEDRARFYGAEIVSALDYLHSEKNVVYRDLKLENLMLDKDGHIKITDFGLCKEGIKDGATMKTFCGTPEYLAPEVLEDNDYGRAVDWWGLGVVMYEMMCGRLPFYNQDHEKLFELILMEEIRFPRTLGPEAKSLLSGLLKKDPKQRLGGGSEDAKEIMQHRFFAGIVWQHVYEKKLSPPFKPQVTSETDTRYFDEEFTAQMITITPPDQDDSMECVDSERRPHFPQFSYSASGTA

[8] = target: Mitogen-activated protein kinase; ERK1/ERK2 (Homo sapiens) (UniProt P27361+P28482); experiment: Decrease in phosphorylated ERK1/2 level in human MDA-MB-231 cells after 24 hrs by western blotting method; format: cell-based
Chain of Mitogen-activated protein kinase; ERK1/ERK2 (Homo sapiens) (P27361 whole entry, looked up): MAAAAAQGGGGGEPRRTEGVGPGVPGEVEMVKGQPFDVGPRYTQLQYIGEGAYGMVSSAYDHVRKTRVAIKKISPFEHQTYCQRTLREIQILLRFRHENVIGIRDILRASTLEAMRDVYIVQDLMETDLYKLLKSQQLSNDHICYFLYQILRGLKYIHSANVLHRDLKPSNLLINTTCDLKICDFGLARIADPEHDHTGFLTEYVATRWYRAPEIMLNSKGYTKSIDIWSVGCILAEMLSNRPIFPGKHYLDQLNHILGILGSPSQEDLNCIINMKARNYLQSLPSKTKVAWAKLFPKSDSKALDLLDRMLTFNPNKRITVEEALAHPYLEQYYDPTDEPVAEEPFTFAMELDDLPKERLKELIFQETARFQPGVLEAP
Chain of Mitogen-activated protein kinase; ERK1/ERK2 (Homo sapiens) (P28482 whole entry, looked up): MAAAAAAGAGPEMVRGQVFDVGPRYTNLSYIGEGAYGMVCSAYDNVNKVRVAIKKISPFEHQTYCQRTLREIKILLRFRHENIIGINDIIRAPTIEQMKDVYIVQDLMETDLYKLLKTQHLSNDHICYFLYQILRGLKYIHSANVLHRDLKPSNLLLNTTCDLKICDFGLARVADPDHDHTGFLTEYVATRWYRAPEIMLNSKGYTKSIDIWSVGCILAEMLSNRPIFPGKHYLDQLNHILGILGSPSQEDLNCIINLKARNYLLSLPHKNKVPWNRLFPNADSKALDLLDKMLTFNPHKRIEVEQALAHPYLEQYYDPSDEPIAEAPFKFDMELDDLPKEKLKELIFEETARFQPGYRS

[9] = system: HUVEC; experiment: Cytotoxicity against HUVEC assessed as inhibition of cell proliferation up to 12.5 uM after 24 hrs by MTT assay; format: cell-based; settings: human

O=C(O[C@@H]1O[C@@H]2COC(=O)c3cc(O)c(O)c(O)c3-c3c(cc(O)c(O)c3O)C(=O)O[C@H]2[C@@H]2OC(=O)c3cc(O)c(O)c(O)c3-c3c(cc(O)c(O)c3O)C(=O)O[C@@H]12)c1cc(O)c(O)c(Oc2c(O)c(O)c(O)c3c2C(=O)O[C@H]2[C@@H]4OC(=O)c5cc(O)c(O)c(O)c5-c5c(cc(O)c(O)c5O)C(=O)O[C@H]4[C@@H](OC(=O)c4cc(O)c(O)c(O)c4)O[C@@H]2COC(=O)c2cc(O)c(O)c(O)c2-3)c1
inhibition at 6.25 µM [1]: 41.5% | inhibition (INH) [2]: Dose-dependent effect | Activity [3]: 37.6% | inhibition [4]: inactive | inhibition [5]: Active | inhibition [6]: Active | inhibition [7]: Active | inhibition [8]: Active | Activity [9]: Non-toxic
